Reference: US20240317743A1, “Solid Forms of BCL-2 Inhibitors, Method of Preparation, and Use Thereof” (BeiGene, Ltd., priority 2021, published 2024)
Converted amounts (≈) assume the structure as drawn.

What was measured:
Format in all cases: physicochemical
[1] = DVS (Method A) water uptake / hygroscopicity; details: 25° C./80% RH
Procedure: DVS of the obtained forms in the present disclosure was measured via an SMS (Surface Measurement Systems) DVS Intrinsic, without special instructions (Method A). The relative humidity at 25° C. was calibrated against deliquescence point of LiCl, Mg(NO3)2 and KCl. Parameters for the DVS test are listed as follows. [table]

[2] = Solid form solubility, concentration by HPLC at 24 hours
Procedure: The solubility of Compound 1 in different physical forms was tested in water, 0.1 N HCl, pH 4.5 acetate buffer and pH 6.8 phosphate buffer. At 24 hours of time point, the concentration of Compound 1 was detected by HPLC.

[3] = Long term and accelerated physical and chemical stability test, impurities by HPLC
Procedure: Long term and accelerated stability studies were conducted in different physical forms of Compound 1, by storing the samples at 25±2° C./60±5% RH and 40±2° C./75±5% RH conditions for up to 6 months. And, the content of the total impurities of each sample was tested by HPLC.

[4] = Physical stability: storage under humidity/temperature, form checked by XRPD
Procedure: To evaluate the physicochemical stability, store 1˜3 mg of Forms B, S, M, R, F, H and N samples were stored under 25° C./60% RH or 40° C./75% RH conditions for one week (unsealed) or 80° C. condition for 24 hrs (sealed).

[5] = Solid form stability of Form B: slurry or shaking in acetone/H2O system at 50° C., XRPD
Procedure: Evaluation of solid form stability of Form B was performed in acetone/H2O system at 50° C. About 2 mg of Form B sample was used to slurry or shake in the acetone/H2O (1:9, v/v) and H2O solution (saturated by amorphous sample).

[6] = Storage at RT, form checked by XRPD overlay; details: storage at RT
Procedure: Form K was speculated as a methyl acetate solvate.
Thus, Form L was speculated as a metastable anhydrate/hydrate which could be de-solvated from the wet cake from the solvent system.
(peak) before decomposition (FIG. 16B). According to the integration of ^1H NMR result (FIG. 16C), the theoretical weight of chlorobenzene was calculated as 9.8%, which matched with the TGA weight loss. […] After heating the sample to 140° C., more diffraction peaks disappeared. Combined with the TGA, ^1H NMR data and heating experiment, Form P was speculated as a chlorobenzene solvate.

CC(C)c1ccccc1[C@@H]1CCCN1C1CC2(CCN(c3ccc(C(=O)NS(=O)(=O)c4ccc(NCC5CCC(C)(O)CC5)c([N+](=O)[O-])c4)c(Oc4cnc5[nH]ccc5c4)c3)CC2)C1 (stereo partly drawn) [Compound 1 amorphous, 2-((1H-pyrrolo[2,3-b]pyridin-5-yl)oxy)-N-((4-((((1r,4r)-4-hydroxy-4-methylcyclohexyl)methyl)amino)-3-nitrophenyl)sulfonyl)-4-(2-((S)-2-(2-isopropylphenyl)pyrrolidin-1-yl)-7-azaspiro[3.5]nonan-7-yl)benzamide]
water uptake ([1]; listed as amorphous form): 1.8% | solubility ([2]; 0.1 N HCl): 35.30 µg/mL (≈ 39.7 µM) | solubility ([2]; pH 4.5 acetate buffer): no Compound 1 was detected | solubility ([2]; pH 6.8 phosphate buffer): no Compound 1 was detected | solubility ([2]; water): no Compound 1 was detected | change of chemical purity ([3]; 25±2° C./60±5% RH and 40±2° C./75±5% RH, up to 6 months): reduced significantly | total content of impurities ([3]; after 6 months at 40±2° C./75±5% RH): 4.2% | total content of impurities ([3]; before storage (initial)): 2.10%

CC(C)c1ccccc1[C@@H]1CCCN1C1CC2(CCN(c3ccc(C(=O)NS(=O)(=O)c4ccc(NCC5CCC(C)(O)CC5)c([N+](=O)[O-])c4)c(Oc4cnc5[nH]ccc5c4)c3)CC2)C1 (stereo partly drawn) [Form B, 2-((1H-pyrrolo[2,3-b]pyridin-5-yl)oxy)-N-((4-((((1r,4r)-4-hydroxy-4-methylcyclohexyl)methyl)amino)-3-nitrophenyl)sulfonyl)-4-(2-((S)-2-(2-isopropylphenyl)pyrrolidin-1-yl)-7-azaspiro[3.5]nonan-7-yl)benzamide]
hygroscopicity [1]: slight hygroscopicity | water uptake [1]: 0.9% | form change (XRPD overlay) ([4]; 25° C./60% RH, one week, unsealed): no form change | form change (XRPD overlay) ([4]; 40° C./75% RH, one week, unsealed): no form change | form change (XRPD overlay) ([4]; 80° C., sealed, 24 hrs): no form change | crystalline status (XRPD overlay) ([5]; shaking in H2O, about 4 hours): no form change was observed | crystalline status (XRPD overlay) ([5]; shaking in H2O, about 4 days): no form change was observed | crystalline status (XRPD overlay) ([5]; shaking in acetone/H2O (1:9, v/v), about 4 hours): no form change was observed | crystalline status (XRPD overlay) ([5]; shaking in acetone/H2O (1:9, v/v), about 4 days): no form change was observed | crystalline status (XRPD overlay) ([5]; slurrying in H2O, about 4 hrs): no form change was observed | crystalline status (XRPD overlay) ([5]; slurrying in H2O, about 4 days): a decrease of crystallinity was observed | crystalline status (XRPD overlay) ([5]; slurrying in acetone/H2O (1:9, v/v), about 4 days): a decrease of crystallinity was observed

CC(C)c1ccccc1[C@@H]1CCCN1C1CC2(CCN(c3ccc(C(=O)NS(=O)(=O)c4ccc(NCC5CCC(C)(O)CC5)c([N+](=O)[O-])c4)c(Oc4cnc5[nH]ccc5c4)c3)CC2)C1 (stereo partly drawn) [Form L, 2-((1H-pyrrolo[2,3-b]pyridin-5-yl)oxy)-N-((4-((((1r,4r)-4-hydroxy-4-methylcyclohexyl)methyl)amino)-3-nitrophenyl)sulfonyl)-4-(2-((S)-2-(2-isopropylphenyl)pyrrolidin-1-yl)-7-azaspiro[3.5]nonan-7-yl)benzamide]
form change on storage [6]: converted to Form I
